The values that follow come from patent US20100227876A1 (priority 2009, published 2010).

The subject of one experiment is human. Conditions: cited from earlier work.
For a further experiment, the system named is rats. Conditions: rat, in vivo; cited from earlier work.
A further experiment deals with male Sprague-Dawley rats. Nature of the experiment: animal or person. The class given is in vivo, rat. The conditions noted are these: sc.

The ED50 is the dose that gives a 50% effect, or the effect in half of the subjects.

For the compound `Oc1ccc2c(c1)[C@@]13CCCC[C@@]1(O)[C@@H](C2)N(CC1CCC1)CC3` [butorphanol], the effective human dose with human is 2 mg.
For `Oc1ccc2c3c1O[C@H]1c4[nH]c5c(c4C[C@@]4(O)[C@@H](C2)N(CC2CC2)CC[C@]314)C[C@@]1(O)[C@H]2Cc3ccc(O)c4c3[C@@]1(CCN2CC1CC1)[C@H]5O4` [n-BNI, nor-binaltorphimine], the “M.P.E. (maximal percent effect, antinociception)” value in the experiment with rats is listed as 1.0%.
Take `CN1CC[C@]23c4c5ccc(O)c4O[C@H]2C(=O)CC[C@@]3(O)[C@H]1C5` [oxymorphone]: the ED50 in the experiment on male Sprague-Dawley rats (Rattus norvegicus, read-out: ED50 (M.P.E.=50%)) was 0.078 mg/kg. Also, the “peak effect, time post injection” value in the experiment on male Sprague-Dawley rats (rat, in vivo) stood at 30 min.
As for `COC(=O)/C=C/C(=O)N[C@@H]1CC[C@@]2(O)[C@H]3Cc4ccc(O)c5c4[C@@]2(CCN3CC2CC2)[C@H]1O5` [β-FNA, beta-funaltrexamine], the “M.P.E. (maximal percent effect, antinociception)” value in the experiment on rats is recorded as 1.0%.
